Data set [1] concerns Leishmania aethiopica promastigotes. Description: In vitro antipromastigote assay (resazurin fluorescence). In kind it is cell-based. On the procedure:
(§1) In vitro antileishmanial activity tests were carried out against the promastigote stage and axenically cultured amastigotes of L. aethiopica and L. donovani. The two isolates were grown in tissue culture flasks containing RPMI 1640 medium supplemented with 10% heat-inactivated fetal calf serum, 100 IU penicillin/mL, and 100 μg/mL streptomycin solution at 22°C for L. aethiopica and 24°C for L. donovani. Axenically cultured amastigotes were obtained from the late stationary phase promastigotes (3 × 10^6 cells/ml). The cells were centrifuged and then resuspended in medium 199 with Hank's salts supplemented with 20% FBS, 2 mM L-glutamine, 50 IU/mL penicillin, and 50 μg/mL streptomycin. The pH was adjusted to 5.5 using 1 N HCl. Following incubation of cells at 31°C for L. aethiopica and 37°C for L. donovani at 5% CO2, amastigote-like rounded morphology together with loss of flagella and cell clumping started appearing within 24 h. The parasites were kept for a week as some motile parasites with intermediate forms and short flagella were detected. The human monocytic leukemia cell line THP-1 cells were incubated in RPMI 1640 medium plus 10% hi-FCS and 20 ng/mL phorbol 12-myristate 13-acetate (PMA; Sigma) at 37°C and 5% CO2 for 72 h. A cell-free medium was used to grow parasites in vitro and to set up the test system for determination of the IC50 values of the test substances.
(§2) To a separate 96-well microtiter plate containing 100 μL of complete culture medium, each of the test substances was added to triplicate wells to achieve a final concentration of 100 μg/mL. Each one hundred microliter suspension of the parasites (3.5 × 10^6 promastigotes or axenically cultured amastigotes /mL of L. aethiopica or L. donovani) obtained from the previous culture was then added to each well, and contents of each plates were maintained for 72 h, at room temperature for promastigotes stages of both strains, at 31°C and 37°C for axenically cultured amastigotes of L. aethiopica and L. donovani, respectively. After 68 h of incubation, 20 μL (10% of the total volume of each well) resazurin (0.125 mg/mL) was added, covered with aluminum foil, and left at temperature mentioned above. Antileishmanial effect of the test substances was studied on the basis of fluorescence characteristic of resazurin added to drug-treated cultures.
(§3) Antipromastigote effect was evaluated against clinical isolates of L. aethiopica and L. donovani strains, as per the method described by Abeje et al..
(§4) Antileishmanial activity (IC50) was expressed as mean ± SD of triplicate measurements. IC50 values were evaluated from sigmoidal dose-response curves of percent inhibition using the computer software GraphPad Prism 8 (GraphPad Software, Inc., CA, USA), and values expressed as mean ± SD of triplicate experiments.
In general terms: Alamar Blue is a resazurin reagent that responds to reducing activity.

For data set [2], the system named is Leishmania donovani promastigotes. The description is as above. The format is cell-based. As to conditions: L. donovani promastigotes, 72 h. Here is the method:
as §1, §2, §3, §4

Data set [3] in a line: Acute toxicity study (OECD limit test). Conditions: mouse, in vivo; Swiss albino mice, limit test dose 2000 mg/kg, OECD guideline. On the procedure: Acute toxicity study was carried out as described earlier using the limit test dose of 2000 mg/kg according to OECD guideline for testing of chemicals on Swiss albino mice.
A short description of data set [4]: Cytotoxicity study in THP-1 monocytes (Alamar Blue). The format is cell-based. Conditions: human. Here is the method:
In vitro antileishmanial activity tests were carried out against the promastigote stage and axenically cultured amastigotes of L. aethiopica and L. donovani. […] Axenically cultured amastigotes were obtained from the late stationary phase promastigotes (3 × 10^6 cells/ml). […] The pH was adjusted to 5.5 using 1 N HCl. Following incubation of cells at 31°C for L. aethiopica and 37°C for L. donovani at 5% CO2, amastigote-like rounded morphology together with loss of flagella and cell clumping started appearing within 24 h. The parasites were kept for a week as some motile parasites with intermediate forms and short flagella were detected. […] A cell-free medium was used to grow parasites in vitro and to set up the test system for determination of the IC50 values of the test substances.
THP-1 monocytes were plated onto 96-well plates at a density of 4 × 10^4 cells per well (in 200 μL volume) in the presence or absence of test substances and plates incubated at 37°C, 5% CO2 for 72 h. After adding Alamar Blue™ during the last 3 h of incubation, cell viability was measured fluorometrically as described above.

In data set [5] the test system is axenically cultured amastigotes of Leishmania aethiopica. Kind of data set: In vitro assay on axenically cultured amastigotes (resazurin fluorescence). Conditions: for Selectivity index: LC50 on THP-1 cells / IC50 on L. aethiopica amastigotes; for IC50: Leishmania aethiopica, L. aethiopica axenic amastigotes, 72 h. In kind it is cell-based. On the procedure:
as §1, with “The human monocytic leukemia cell line THP-1 cells were incubated in RPMI 1640 medium plus 10% hi-FCS and 20 ng/mL phorbol 12-myristate 13-acetate (PMA; Sigma) at 37°C and 5% CO2 for 72 h.” left out, “substances. […] Each one hundred microliter suspension of the parasites (3.5 × 10^6 promastigotes or axenically cultured amastigotes /mL of L. aethiopica or L. donovani) obtained from the previous culture was then added to each well, and contents of each plates were maintained for 72 h, at room temperature for promastigotes stages of both strains, at 31°C and 37°C for axenically cultured amastigotes of L. aethiopica and L. donovani, respectively. After 68 h of incubation, 20 μL (10% of the total volume of each well) resazurin (0.125 mg/mL) was added, covered with aluminum foil, and left at temperature mentioned above. […] Antileishmanial activity (IC50) was expressed as mean ± SD of triplicate measurements. IC50 values were evaluated from sigmoidal dose-response curves of percent inhibition using the computer software GraphPad Prism 8 (GraphPad Software, Inc., CA, USA), and values expressed as mean ± SD of triplicate experiments.” for “substances.”

Data set [6] has as its system axenically cultured amastigotes of Leishmania donovani. The description is as above. The format is cell-based. As to conditions: for Selectivity index: LC50 on THP-1 cells / IC50 on L. donovani amastigotes; for IC50: Leishmania donovani, L. donovani axenic amastigotes, 72 h. On the procedure: as §1, with “The human monocytic leukemia cell line THP-1 cells were incubated in RPMI 1640 medium plus 10% hi-FCS and 20 ng/mL phorbol 12-myristate 13-acetate (PMA; Sigma) at 37°C and 5% CO2 for 72 h.” left out, “substances. […] Each one hundred microliter suspension of the parasites (3.5 × 10^6 promastigotes or axenically cultured amastigotes /mL of L. aethiopica or L. donovani) obtained from the previous culture was then added to each well, and contents of each plates were maintained for 72 h, at room temperature for promastigotes stages of both strains, at 31°C and 37°C for axenically cultured amastigotes of L. aethiopica and L. donovani, respectively. After 68 h of incubation, 20 μL (10% of the total volume of each well) resazurin (0.125 mg/mL) was added, covered with aluminum foil, and left at temperature mentioned above. […] Antileishmanial activity (IC50) was expressed as mean ± SD of triplicate measurements. IC50 values were evaluated from sigmoidal dose-response curves of percent inhibition using the computer software GraphPad Prism 8 (GraphPad Software, Inc., CA, USA), and values expressed as mean ± SD of triplicate experiments.” for “substances.”

Another data set deals with L. major amastigotes. More on the design: method as in PMID 26151018. As to conditions: in vitro; cited from earlier work.
The mark [7] stands for this setting: L. aethiopica promastigotes, 72 h, mean ± SD, n = 3, read-out: Antipromastigote activity IC50.
The mark [8] stands for this setting: L. aethiopica promastigotes, 72 h, read-out: Antipromastigote activity IC50 (micromolar, in parenthesis) (converted).
The mark [9] stands for this setting: mean ± SD, n = 3, read-out: Antipromastigote activity IC50.
Setting [10] is: read-out: Antipromastigote activity IC50 (micromolar, in parenthesis) (converted).
[11] abbreviates: mean ± SD, n = 3, read-out: Cytotoxic effect in THP-1 LC50.
Setting [12] is: read-out: Cytotoxic effect in THP-1 LC50 (micromolar, in parenthesis) (converted).
Setting [13] is: 31°C, mean ± SD, n = 3, read-out: Antiaxenically cultured amastigotes activity IC50.
Setting [14] is: read-out: Antiaxenically cultured amastigotes activity IC50 (micromolar, in parenthesis) (converted).
[15] abbreviates: 37°C, mean ± SD, n = 3, read-out: Antiaxenically cultured amastigotes activity IC50.

Molecules are shown by their SMILES. Where two headings read alike, the source gives them in different places.

What is called IC50 is the point on the concentration scale where inhibition reaches its midpoint. Broadly, the LD50 is the dose at which mortality reaches 50%.

Turning to `O=C(O)c1cc(O)c2c(c1)C(=O)c1cccc(O)c1C2=O` [Rhein, rhein], the 50% inhibitory concentration (IC50) was 1.91 ± 0.61 µg/mL in data set [1] (setting [7]); 6.7 µM in data set [1] (setting [8]); 2.07 ± 0.11 µg/mL in data set [2] (setting [9]); 7.3 µM in data set [2] (setting [10]); 1.01 ± 0.22 µg/mL in data set [5] (setting [13]); 3.6 µM in data set [5] (setting [14]). Also, the IC50 was 1.17 ± 0.42 µg/mL in data set [6] (setting [15]) and 4.1 µM in data set [6] (setting [14]). In data set [3], this compound displayed a 50% lethal dose (LD50) of more than 2000 mg/kg. Further, the CC50 at 72 h is 173.7 ± 0.11 µg/mL in data set [4] (setting [11]) and 612 µM in data set [4] (setting [12]). The Selectivity index in data set [5] is on record as 171.98; in data set [6], 148.46.
As to `C[C@@H]1[C@H](O)[C@@H](C)/C=C/C=C/C=C/C=C/C=C/C=C/C=C/[C@H](O[C@@H]2O[C@H](C)[C@@H](O)[C@H](N)[C@@H]2O)C[C@@H]2O[C@](O)(C[C@@H](O)C[C@@H](O)[C@H](O)CC[C@@H](O)C[C@@H](O)CC(=O)O[C@H]1C)C[C@H](O)[C@H]2C(=O)O` [Amphotericin B, amphotericin B, reference compound], the IC50 in data set [1] (setting [7]) was 2.43 ± 0.22 µg/mL; in data set [1] (setting [8]), 2.6 µM; in data set [1] (promastigotes and axenic amastigotes of L. aethiopica and L. donovani, read-out: IC50 (range over both stages and both species)) it was 1.3 to 2.7 µM; in data set [2] (setting [9]), 2.45 ± 0.21 µg/mL; in data set [2] (setting [10]), 2.7 µM; in data set [5] (setting [13]), 1.23 ± 0.41 µg/mL. In addition, the IC50 in data set [5] (setting [14]) was 1.3 µM; in data set [6] (setting [15]) it was 1.55 ± 0.51 µg/mL; in data set [6] (setting [14]), 1.7 µM. Further, the CC50 at 72 h in data set [4] (setting [11]) is 10.2 ± 0.32 µg/mL; in data set [4] (setting [12]) it was 11.1 µM. Also, the figures for the Selectivity index in data set [5] and in data set [6] were 8.31 and 6.60, respectively.
Turning to `O=C1c2cccc(O)c2C(=O)c2c(O)cc(CO)cc21` [Aloe-emodin, aloe-emodin], the IC50 was 2.81 ± 0.43 µg/mL in data set [1] (setting [7]); 10.4 µM in data set [1] (setting [8]); 2.85 ± 0.5 µg/mL in data set [2] (setting [9]); 10.6 µM in data set [2] (setting [10]); 2.23 ± 0.33 µg/mL in data set [5] (setting [13]); 8.3 µM in data set [5] (setting [14]). In addition, the IC50 in data set [6] (setting [15]) was 2.75 ± 0.03 µg/mL; in data set [6] (setting [14]), 10.2 µM. The LD50 in data set [3] was more than 2000 mg/kg. In addition, the CC50 at 72 h in data set [4] (setting [11]) is 145.4 ± 0.27 µg/mL; in data set [4] (setting [12]) it was 539 µM. Further, the Selectivity index in data set [5] is listed as 65.22; in data set [6], 52.89. Further, the “inhibitory concentrations against L. major amastigotes” value in the data set with L. major amastigotes was 40 µg/mL.
As for `O=C1c2c(O)cccc2C(C2OC(CO)C(O)C(O)C2O)c2cc(CO)cc(O)c21` (centres unmarked) [Aloin A/B, aloin A/B], the IC50 in data set [1] (setting [7]) was 3.94 ± 0.33 µg/mL; in data set [1] (setting [8]), 9.4 µM; in data set [2] (setting [9]), 5.06 ± 0.22 µg/mL; in data set [2] (setting [10]) it was 12.1 µM; in data set [5] (setting [13]) it was 2.8 ± 1.02 µg/mL; in data set [5] (setting [14]) it was 6.7 µM. Besides, the figures for the IC50 in data set [6] (setting [15]) and in data set [6] (setting [14]) were 2.92 ± 0.15 µg/mL and 7 µM, respectively. Besides, in data set [3], the LD50 was more than 2000 mg/kg. Also, the CC50 at 72 h in data set [4] (setting [11]) is 154.3 ± 0.22 µg/mL; in data set [4] (setting [12]), 369 µM. Further, the Selectivity index is listed as 55.11 in data set [5] and 52.84 in data set [6].

(Values after publication PMC6409032, “Antileishmanial Evaluation of the Leaf Latex of Aloe macrocarpa, Aloin A/B, and Its Semisynthetic Derivatives against Two Leishmania Species” (Evidence-based Complementary and Alternative Medicine : eCAM, 2019).)
